Results from patent publication US4579865A, “Benzofuranyl carbamates” (USV Pharmaceutical Corp., priority 1984, dated 1986).

Assays:
In Vivo Lipolysis = experiment: In vivo lipolysis assay (serum unesterified fatty acids in fasted rats); design: species or system rat; details: 2 hours after drug
rat adipocyte lipolysis = experiment: Rat adipocyte assay (epinephrine-stimulated lipolysis, glycerol release); type: cell-based; details: rat adipocytes, epinephrine 3 μM plus methylisobutylxanthine 10 μM, 1 hour 37° C., read-out: Adipocyte I50
Method: Abdominal fat pads were removed from male rats weighing 200-250 grams and placed in Krebs-bicarbonate buffer gassed with 95% O2 /5% CO2. The fat pads were digested with collagenase for 1 hour at 37° C., washed twice with Krebs-bicarbonate buffer and distributed among a set of 20 ml plastic counting vials. Two such vials received only buffer and cells (4 ml) but no agonists or antagonists. The remaining vials received epinephrine (3 μM) plus the phosphodiesterase inhibitor methylisobutylxanthine (10 μM). Test compounds were dissolved in DMSO or water to a concentration of […] and 40 μl was added to the buffer plus cells in the counting vials. The final compound concentration for routine screening was 200 μM (final concentration of DMSO=1%).
The cells were incubated for 1 hour at 37° C. under a 95% O2 /5% CO2 atmosphere. The incubation was stopped by placing the vials in crushed ice. The cells and medium were transferred to test tubes, centrifuged and the cell layer removed by aspiration. The aqueous phase was assayed for glycerol using the enzyme glycerol dehydrogenase. The glycerol dihydrogenase assay for glycerol depends on the enzyme catalyzed conversion of glycerol to glyceraldehyde and NAD to NADH. The assay can detect as little as 5-10 nanomoles of glycerol. The aqueous phase, following removal of cells, usually contained about 50 to 80 nanomoles of glycerol per 300 μl of assayed sample if no inhibitory activity was present. Samples from the control tubes (no agonist) usually contained 0-5 nanomoles of glycerol per 300 μl of sample.

Canine cardiac lipases = experiment: Myocardial lipase assay; type: biochemical; details: triolein emulsion, pH 6.8, read-out: Lipase I50
Method: All compounds were dissolved in DMSO (final concentration 3.0%) and tested in duplicate at a concentration of 100 μM. Canine cardiac lipases were obtained by extracting washed heart membranes with buffer plus heparin and a small amount of Triton X-100 detergent. Because these enzymes are only active at an oil-water interface, the enzyme reaction is run in an oil-water emulsion that contains triolein substrate, Tris buffer (50 mM, pH 6.8) and a small amount of bovine serum albumin (0.5%) added to stabilize the emulsion. A small amount of tritiated triolein was added to the unlabelled triolein substrate. Tritium-labelled oleic acid released by the lipases was extracted into hexane, separated from unreacted triolein and counted in a scintillation counter. Inhibitory agents reduce the amount of radioactivity appearing in the free fatty acid fraction isolated in the extraction procedure.

| SMILES | In Vivo Lipolysis % Inhib. at mg/Kg (In Vivo Lipolysis; 25 mg/Kg p.o.) | IC50 (rat adipocyte lipolysis) | IC50 (Canine cardiac lipases) | In Vivo Lipolysis % Inhib. at mg/Kg (In Vivo Lipolysis; 100 mg/Kg p.o.) | In Vivo Lipolysis % Inhib. at mg/Kg (In Vivo Lipolysis; 100 mg/Kg i.p.) |
| --- | --- | --- | --- | --- | --- |
| COc1ccc(NC(=O)Oc2cccc3ccoc23)cc1 [Example 1, 7-Benzofuranyl N-(4-methoxyphenyl)carbamate] | 97% | 0.3 µM | 16 µM |  |  |
| COc1ccc(NC(=O)Oc2cccc3ccoc23)c(OC)c1 [Example 2, 7-Benzofuranyl N-(2,4-dimethoxy)phenyl carbamate] |  | 0.3 µM | 40 µM | 71% |  |
| O=C(NC1CCCCC1)Oc1cccc2ccoc12 [Example 3, 7-Benzofuranyl N-(cyclohexyl)carbamate] |  | 12 µM | 10 µM | 26% |  |
| COc1ccc(NC(=O)Oc2cccc3ocnc23)cc1 [Example 4, 4-Benzoxazoyl N-(4-methoxyphenyl)carbanamate] |  | 2.4 µM | 79 µM |  | 40% |
